Experimental data: ChEMBL document CHEMBL5518215, “Unlocking Antibacterial Potential: Key-Site-Based Regulation of Antibacterial Spectrum of Peptides” (J Med Chem, 2024)
The source made the active and inactive calls. No cut-off for these calls is given here.

What was measured:
[1] = system: Escherichia coli; assay: Antibacterial activity against Escherichia coli 25922 assessed as bactericidal rate by measuring reduction in bacterial count at 1 times MBC concentration measured at 15 secs by time-kill kinetic assay; type: functional; conditions: time 15 sec; 15 s
[2] = system: Salmonella typhimurium; assay: Antimicrobial activity against Salmonella typhimurium 14028 assessed as absence bacterial growth measured after 18 to 24 hrs incubation by NCCLS method; type: functional, Salmonella enterica subsp. enterica serovar Typhimurium; conditions: Salmonella enterica, time 18-24 hrs
[3] = system: Pseudomonas aeruginosa; assay: Antimicrobial activity against Pseudomonas aeruginosa 27853 assessed as absence bacterial growth measured after 18 to 24 hrs incubation by NCCLS method; type: functional; conditions: time 18-24 hrs
[4] = system: Escherichia coli; assay: Outer membrane permeabilization/cell wall in Escherichia coli 25922 assessed as fluorescence intensity of NPN measured at 2 to 128 uM after 1 hr by spectrophotometry; type: functional, organism-based; conditions: dose 2-128 µM
[5] = system: Staphylococcus aureus; assay: Antimicrobial activity against Staphylococcus aureus 25923 assessed as bacterial killing measured after 16 hrs incubation; type: functional
[6] = Cytotoxicity against porcine IPEC-J2 cells assessed as cell survival rate at 64 uM measured after 8 hrs by MTT assay relative to control; type: toxicity, cell-based, Sus scrofa; conditions: pig, read-out: Activity
[7] = system: Listeria monocytogenes; assay: Antimicrobial activity against Listeria monocytogenes 1.10753 assessed as absence bacterial growth measured after 18 to 24 hrs incubation by NCCLS method; type: functional; conditions: time 18-24 hrs
[8] = Antimicrobial activity against Salmonella pullorum C7913 assessed as bacterial killing measured after 16 hrs incubation; type: functional, Salmonella enterica subsp. enterica serovar Pullorum; conditions: Salmonella enterica
[9] = system: Escherichia coli; assay: Antimicrobial activity against Escherichia coli 25922 assessed as absence bacterial growth measured after 18 to 24 hrs incubation in presence of 12.5% serum by NCCLS method; type: functional; conditions: time 18-24 hrs
[10] = system: Escherichia coli; assay: Antibacterial activity against Escherichia coli 25922 assessed as absence bacterial growth measured after 18 to 24 hrs incubation at pH 8 by NCCLS method; type: functional; conditions: time 18-24 hrs
[11] = system: Escherichia coli; assay: Antibacterial activity against Escherichia coli 25922 assessed as absence bacterial growth measured after 12 hrs treated with H2O2; type: functional
[12] = Hemolytic activity in human RBC at effective concentration at 128 uM measured after 1 hr by microplate reader relative to control; type: toxicity, cell-based, Erythrocyte; conditions: human red blood cells (erythrocytes), read-out: Activity
[13] = system: Staphylococcus epidermidis; assay: Antimicrobial activity against Staphylococcus epidermidis 12228 assessed as bacterial killing measured after 16 hrs incubation; type: functional
[14] = system: Enterococcus faecalis; assay: Antimicrobial activity against Enterococcus faecalis 29212 assessed as bacterial killing measured after 16 hrs incubation; type: functional
[15] = system: Escherichia coli; assay: Antibacterial activity against Escherichia coli 25922 assessed as absence bacterial growth measured after 18 to 24 hrs incubation at pH 6 by NCCLS method; type: functional; conditions: time 18-24 hrs
[16] = system: Erythrocyte; assay: Hemolytic activity in human RBC at effective concentration measured after 1 hr by microplate reader analysis; type: toxicity, cell-based
[17] = system: Staphylococcus aureus; assay: Inhibition of respiratory chain dehydrogenase activity in mid-log phase Staphylococcus aureus 29213 measured after 4 hrs by Red-tetraazoline based spectrophotometry assay
[18] = system: Salmonella typhimurium; assay: Antimicrobial activity against Salmonella typhimurium 14028 assessed as bacterial killing measured after 16 hrs incubation; type: functional, Salmonella enterica subsp. enterica serovar Typhimurium; conditions: Salmonella enterica
[19] = system: Staphylococcus aureus; assay: Antimicrobial activity against Staphylococcus aureus 29213 assessed as bacterial killing measured after 16 hrs incubation; type: functional
[20] = system: Staphylococcus aureus; assay: Antimicrobial activity against Staphylococcus aureus 29213 assessed as absence bacterial growth measured after 18 to 24 hrs incubation by NCCLS method; type: functional; conditions: time 18-24 hrs
[21] = system: Staphylococcus aureus; assay: Induction of morphological changes in Staphylococcus aureus 29213 assessed as cavity between cell wall and cytoplasmic membrane by using transmission electron microscopy; type: functional, organism-based
[22] = system: Staphylococcus aureus; assay: Outer membrane permeabilization/cell wall in Staphylococcus aureus 29213 assessed as fluorescence intensity of NPN measured at 2 to 128 uM after 1 hr by spectrophotometry; type: functional, organism-based; conditions: dose 2-128 µM
[23] = system: Staphylococcus aureus; assay: Antimicrobial activity against Methicillin-resistant Staphylococcus aureus 43300 assessed as absence bacterial growth measured after 18 to 24 hrs incubation by NCCLS method; type: functional; conditions: time 18-24 hrs
[24] = system: Pseudomonas aeruginosa; assay: Antimicrobial activity against Pseudomonas aeruginosa 27853 assessed as bacterial killing measured after 16 hrs incubation; type: functional
[25] = system: DNA; assay: Binding affinity to DNA in Escherichia coli 25922 incubated for 1 hr by electrophoresis; type: nucleic-acid assay
[26] = system: Escherichia coli; assay: Antimicrobial activity against Escherichia coli 25922 assessed as absence bacterial growth measured after 18 to 24 hrs incubation in presence of ZnCl2 by NCCLS method; type: functional; conditions: time 18-24 hrs
[27] = system: Staphylococcus aureus; assay: Antibacterial activity against Staphylococcus aureus 29213 assessed as bactericidal rate by measuring reduction in bacterial count at 1 times MBC concentration measured at 15 secs by time-kill kinetic assay; type: functional; conditions: time 15 sec; 15 s
[28] = system: Escherichia coli; assay: Antimicrobial activity against Escherichia coli 25922 assessed as absence bacterial growth measured after 18 to 24 hrs incubation in presence of FeCl3 by NCCLS method; type: functional; conditions: time 18-24 hrs
[29] = system: Staphylococcus aureus; assay: Induction of morphological changes in Staphylococcus aureus 29213 assessed as changes in cell surface by measuring signs of disruption by using scanning electron microscopy; type: functional, organism-based
[30] = system: Lipoteichoic acid; assay: Binding affinity to Staphylococcus aureus LTA assessed as fluorescence intensity measured after 1 hr by spectrophotometry; conditions: dose 1-64 µM
[31] = system: Cell membrane; assay: Induction of cytoplasmic membrane disruption in Staphylococcus aureus 29213 assessed as increase in fluorescence intensity measured upto 30 mins by DiSC3-5 probe based assay; type: cell membranes; conditions: dose 2-64 µM
[32] = system: Cell membrane; assay: Induction of cytoplasmic membrane disruption in Escherichia coli 25922 assessed as increase in fluorescence intensity measured upto 30 mins by DiSC3-5 probe based assay; type: cell membranes; conditions: dose 2-64 µM
[33] = system: Escherichia coli; assay: Antimicrobial activity against Escherichia coli 25922 assessed as bacterial killing measured after 16 hrs incubation; type: functional
[34] = Cytotoxicity against porcine IPEC-J2 cells assessed as cell survival rate measured after 8 hrs by MTT assay; type: toxicity, cell-based, Sus scrofa; conditions: pig

With H-GKLWLKAGKLWLKGGKLWLKG-NH2 the “inhibition (INH)” value [1] was 99.99%, the MIC [2] was 2 µM and the MIC [3] was 4 µM. For the same substance, the permeability [4] was “Permeable”, the MBC [5] was 4 µM and the viability at 8 h, 64 µM [6] was over 80%. For the same substance, the MIC [7] was over 32 µM, the MBC [8] was 1 µM and the MIC [9] was 16 µM. For the same substance, the MIC [10] was 2 µM, the MIC [11] was 4 µM and the hemolysis at 1 h, 128 µM [12] was under 10%. It also gave an MBC [13] of 8 µM, an MBC [14] of 8 µM and an MIC [15] of 2 µM. The HC10 [16] was over 128 µM, the inhibition [17] was “Active” and the MBC [18] was 16 µM. The MBC [19] was 8 µM, the MIC [20] was 4 µM and the Activity [21] was “Active”. For the same substance, the permeability [22] was “Permeable”, the MIC [23] was 4 µM and the MBC [24] was 8 µM. The Activity [25] was “Active”, the MIC [26] was 2 µM and the “inhibition (INH)” value [27] was 99.99%. The MIC [28] was 2 µM, the Activity [29] was “Active” and the Activity [30] was “Dose-Dependent Effect”. The Activity [31] was “Dose-Dependent Effect”, the Activity [32] was “Dose-Dependent Effect” and the MBC [33] was 2 µM. The IC50 at 8 h [34] was over 64 µM.
